Reference: paper PMC11078746 (Nature, 2024)
Several values for one entry are separate records, joined by “and”; a condition that tells them apart may be missing. Equal entries are not always repeated.

Legend:
[1] = test system: IGROV1; experiment: 4 day proliferation assay (CellTiter-Glo); details: Homo sapiens, IGROV-1, 96 h, read-out: 4 day assay GI50
[2] = test system: HEC1A; experiment: 4 day proliferation assay (CellTiter-Glo); details: Homo sapiens, HEC-1-A, 96 h, read-out: 4 day assay GI50
[3] = Mouse body weight, SW48 xenograft study with HRO761; type: in vivo
Procedure: All animal studies were conducted in accordance with ethics and procedures covered by permit BS-2275 and BS-1975 issued by the Kantonales Veterinäramt Basel-Stadt and in strict adherence to guidelines of the Eidgenössisches Tierschutzgesetz and the Eidgenössische Tierschutzverordnung, Switzerland. All animal studies were approved by the internal ethics committee. All animals had access to food and water ad libitum and were identified with transponders. They were housed in a specific-pathogen-free facility in IVC racks under a 12 h–12 h light–dark cycle. To establish cell-line-derived xenograft models, 6–7-week-old female athymic nude (Crl:NU(NCr)-Foxn1^nu) or SCID-BEIGE (CB17.Cg-PrkdcscidLystbg-J/Crl) mice from Charles River were engrafted subcutaneously with 5 million tumour cells in HBSS (H6648, Sigma-Aldrich). For SNU-407, Lovo, IM95, RL95.2, Ishikawa and IGROV-1, the cells were concentrated in 50% Matrigel (354234, Corning). Patient-derived xenografts were induced and expanded by transplantation as previously described. […] For the efficacy experiment, mice were randomized into groups (n = 5–6) for a mean tumour size of 100–150 mm^3. […] Blood samples were collected on day 7 and 91. […] Tumour responses are reported with the measures of tumour volumes from the treatment start. […] Animals were randomized (n = 3) and tumour samples were collected at 0, 1, 4, 8 and 24 h on the first day and then collected 4 h after the last treatment on day 3, 8, 10, 14 (including a 24 h timepoint), 17 and 21. Tumours were excised, weighed, either frozen in liquid nitrogen and cryogenic dry pulverized with the CryoPrep system (model CP-02, Covaris) or processed to FFPE after fixation. […] On day 12, blood samples were collected for PK analysis. On the last day (3 h after the last treatment), tumours were excised, weighed, frozen in liquid nitrogen and cryogenic dry pulverized for PD analysis.

[4] = HRO761 20mg/kg, day 0 post 1st dose
[5] = HRO761 40mg/kg, day 0 post 1st dose
[6] = HRO761 60mg/kg, day 0 post 1st dose

CCc1c(N2CCN(C(=O)c3ncnc(C)c3O)CC2)c(=O)n2nc(C3=CCOCC3)nc2n1CC(=O)Nc1ccc(C(F)(F)F)cc1Cl [HRO761]
GI50 [1]: 2760 nM | GI50 [2]: ≥ 10000 nM | Delta BW change, individual mouse [3, 4]: 0% | Mean DBW [3, 4]: 0.00% | Mean DBW ([3]; HRO761 20mg/kg, day 3 post 1st dose): -0.35% | Delta BW change, individual mouse ([3]; HRO761 20mg/kg, day 3 post 1st dose, 20 mg/kg): 1.24% and 0% (2×) and -0.78% and -2.23% | Mean DBW ([3]; HRO761 20mg/kg, day 7 post 1st dose): 0.52% | Delta BW change, individual mouse ([3]; HRO761 20mg/kg, day 7 post 1st dose, 20 mg/kg): 2.07% and 1.26% and 1.16% and -1.17% and -0.74% | Mean DBW ([3]; HRO761 20mg/kg, day 10 post 1st dose): 1.67% | Delta BW change, individual mouse ([3]; HRO761 20mg/kg, day 10 post 1st dose, 20 mg/kg): 3.32% and 6.28% and -1.54% and -1.56% and 1.86% | Mean DBW ([3]; HRO761 20mg/kg, day 14 post 1st dose): 1.33% | Delta BW change, individual mouse ([3]; HRO761 20mg/kg, day 14 post 1st dose, 20 mg/kg): 1.66% and 5.86% and -2.32% and -0.78% and 2.23% | Mean DBW ([3]; HRO761 20mg/kg, day 17 post 1st dose): 2.56% | Mean DBW ([3]; HRO761 20mg/kg, day 21 post 1st dose): 4.75% | Mean DBW ([3]; HRO761 20mg/kg, day 24 post 1st dose): 2.97% | Mean DBW ([3]; HRO761 20mg/kg, day 28 post 1st dose): 3.11% | Mean DBW ([3]; HRO761 20mg/kg, day 31 post 1st dose): 2.34% | Mean DBW ([3]; HRO761 20mg/kg, day 35 post 1st dose): 3.43% | Mean DBW ([3]; HRO761 20mg/kg, day 38 post 1st dose): 2.26% | Mean DBW ([3]; HRO761 20mg/kg, day 42 post 1st dose): 3.84% | Mean DBW ([3]; HRO761 20mg/kg, day 45 post 1st dose): 3.81% | Delta BW change, individual mouse [3, 5]: 0% | Mean DBW [3, 5]: 0.00% | Mean DBW ([3]; HRO761 40mg/kg, day 3 post 1st dose): -0.77% | Delta BW change, individual mouse ([3]; HRO761 40mg/kg, day 3 post 1st dose, 40 mg/kg): -0.91% and 0.87% and -5.78% and -3.41% and 5.36% | Mean DBW ([3]; HRO761 40mg/kg, day 7 post 1st dose): 2.11% | Delta BW change, individual mouse ([3]; HRO761 40mg/kg, day 7 post 1st dose, 40 mg/kg): 3.18% and 5.63% and -3.25% and -1.14% and 6.13% | Mean DBW ([3]; HRO761 40mg/kg, day 10 post 1st dose): 1.41% | Delta BW change, individual mouse ([3]; HRO761 40mg/kg, day 10 post 1st dose, 40 mg/kg): 4.09% and 1.73% and -2.17% and 2.27% and 1.15% | Mean DBW ([3]; HRO761 40mg/kg, day 14 post 1st dose): 4.08% | Delta BW change, individual mouse ([3]; HRO761 40mg/kg, day 14 post 1st dose, 40 mg/kg): 5% and 7.36% and -0.36% and 4.17% and 4.21% | Mean DBW ([3]; HRO761 40mg/kg, day 17 post 1st dose): 3.43% | Mean DBW ([3]; HRO761 40mg/kg, day 21 post 1st dose): 5.66% | Mean DBW ([3]; HRO761 40mg/kg, day 24 post 1st dose): 6.90% | Mean DBW ([3]; HRO761 40mg/kg, day 28 post 1st dose): 6.44% | Mean DBW ([3]; HRO761 40mg/kg, day 31 post 1st dose): 5.60% | Mean DBW ([3]; HRO761 40mg/kg, day 35 post 1st dose): 6.99% | Mean DBW ([3]; HRO761 40mg/kg, day 38 post 1st dose): 6.65% | Mean DBW ([3]; HRO761 40mg/kg, day 42 post 1st dose): 6.89% | Mean DBW ([3]; HRO761 40mg/kg, day 45 post 1st dose): 7.16% | Mean DBW ([3]; HRO761 40mg/kg, day 49 post 1st dose): 8.78% | Mean DBW ([3]; HRO761 40mg/kg, day 52 post 1st dose): 8.33% | Mean DBW ([3]; HRO761 40mg/kg, day 56 post 1st dose): 7.63% | Mean DBW ([3]; HRO761 40mg/kg, day 59 post 1st dose): 8.29% | Mean DBW ([3]; HRO761 40mg/kg, day 63 post 1st dose): 9.98% | Mean DBW ([3]; HRO761 40mg/kg, day 66 post 1st dose): 10.38% | Mean DBW ([3]; HRO761 40mg/kg, day 70 post 1st dose): 8.92% | Mean DBW ([3]; HRO761 40mg/kg, day 73 post 1st dose): 8.55% | Mean DBW ([3]; HRO761 40mg/kg, day 76 post 1st dose): 11.97% | Mean DBW ([3]; HRO761 40mg/kg, day 79 post 1st dose): 7.46% | Mean DBW ([3]; HRO761 40mg/kg, day 83 post 1st dose): 7.38% | Mean DBW ([3]; HRO761 40mg/kg, day 86 post 1st dose): 9.81% | Delta BW change, individual mouse [3, 6]: 0% | Mean DBW [3, 6]: 0.00% | Mean DBW ([3]; HRO761 60mg/kg, day 3 post 1st dose): -1.52% | Delta BW change, individual mouse ([3]; HRO761 60mg/kg, day 3 post 1st dose, 60 mg/kg): -2.98% and 1.63% and -3.35% and -4.6% and 1.71% | Mean DBW ([3]; HRO761 60mg/kg, day 7 post 1st dose): -1.16% | Delta BW change, individual mouse ([3]; HRO761 60mg/kg, day 7 post 1st dose, 60 mg/kg): -1.7% and -3.27% and 1.26% and -3.35% and 1.28% | Mean DBW ([3]; HRO761 60mg/kg, day 10 post 1st dose): -1.23% | Delta BW change, individual mouse ([3]; HRO761 60mg/kg, day 10 post 1st dose, 60 mg/kg): -0.43% and -6.94% and 7.11% and -5.02% and -0.85% | Mean DBW ([3]; HRO761 60mg/kg, day 14 post 1st dose): 0.014% | Delta BW change, individual mouse ([3]; HRO761 60mg/kg, day 14 post 1st dose, 60 mg/kg): -0.43% and -2.86% and 6.69% and -4.18% and 0.85% | Mean DBW ([3]; HRO761 60mg/kg, day 17 post 1st dose): -0.23%
